Data published in article PMC11225352, “A multicenter, randomized, double-blind, placebo-controlled ascending dose study to evaluate the safety, tolerability, pharmacokinetics (PK) and pharmacodynamic (PD) effects of Posiphen in subjects with early Alzheimer’s Disease” (Alzheimer's Research & Therapy, 2024).
Marks after values point to notes of the source that are not given here.

Legend:
[1] = Plasma pharmacokinetics of Posiphen and its N1 and N8 metabolites (LC-MS, non-compartmental); type: in vivo, human; conditions: for AUC0 − 24 in plasma, dose proportionality: between once daily and twice daily dosing; for mean levels averaged over 24 h of CSF sampling / AUC0 − 24 / Cmax / Tmax: plasma; for mean levels averaged over 24 h of CSF sampling: after 21–23 days, early AD
Text: (§1) For the confinement visit, subjects arrived in the early morning after an overnight fast. Physical and neurological examination, vital signs, and assessment of compliance were completed and blood was drawn for safety laboratory tests. An intravenous line and a second line for repeated blood draw were placed. To sample CSF, the intrathecal space was accessed using a Perifix 18G Touhy Epidural Needle (90 mm), and a Polyamide Epidural Catheter (20G Closed Tip) was inserted and fixed in place by an Anesthesiologist. Participants received the last day’s dosing of study drug or placebo. Initial blood and CSF samples were drawn, intravenous infusion of ^13C6-leucine was started and continued for 9 h, during which time subjects received a low leucine diet. Blood and CSF were sampled every 2 h for 36 h. After 36 h, intravenous lines and the CSF catheter were removed, vital signs were measured, physical exam performed, and blood and CSF were sent for routine laboratory studies. […] If postural headache was present, a blood patch was performed. Once stable, participants underwent a brief exam and vital sign check and were discharged. They received a phone call 24 h after discharge to check on their wellbeing.
(§2) For biochemical analysis to derive data for SILK, ^13C6-leucine was analyzed in plasma and CSF by mass spectrometry, and Aβ peptides in CSF were analyzed by immunoprecipitation-mass spectrometry (IP-MS) as previously described, by C2N Diagnostics (St Louis, MO). CSF levels of sAPPα, sAPPβ, Aβ38, 40 and 42 were analyzed by the ADCS Biomarker Core using Mesoscale Discovery (MSD) electrochemiluminescent assays (Mesoscale Discovery, Rockville, MD). Levels of Posiphen and its N1 and N8 metabolites in plasma and CSF were measured by Charles River Laboratories (Montreal, CA) by high-performance liquid chromatographic mass spectrometry, with use of deuterated Posiphen (procured by Charles River Laboratories) as an internal standard.
(§3) A prespecified Statistical Analysis Plan (SAP) was prepared and finalized before the database lock occurred. For safety and tolerability, frequencies of adverse events, serious adverse events and laboratory abnormalities between the participants across the three groups are compared, using Pearson’s χ [2] or ANOVA, as appropriate. Plasma concentration-time data are analyzed by non-compartmental methods using WinNonlin version 6.2.1 or greater. Calculations are based on the actual sampling times recorded during the study. For PK analysis, only the subjects receiving Posiphen are included.
(§4) Noncompartmental pharmacokinetic parameters were estimated using Phoenix WinNonlin v8.3 (Certara, Princeton, NJ). Levels and parameters (Cmax, AUC) of posiphen, n-1 and n-8 metabolites were highly correlated in plasma and CSF. For the BID and TID doses the expected post dose plasma peaks appeared attenuated.

[2] = CSF pharmacokinetics of Posiphen and its N1 and N8 metabolites (lumbar catheter sampling, LC-MS); type: in vivo, human; conditions: for mean levels averaged over 24 h of CSF sampling: after 21–23 days, early AD
Text: as §1, §2, §3, §4

[3] = system: Aβ; design: method as in PMID 24828079; conditions: mice and cognitively normal humans (aged 18–50), single dose of 60 mg; cited from earlier work
[4] = 60 mg BID (n = 5), geometric mean (% geometric CV)
[5] = 60 mg BID (n = 5), median (min-max)
[6] = 60 mg daily (n = 4), geometric mean (% geometric CV)
[7] = 60 mg daily (n = 4), median (min-max)
[8] = 60 mg daily (n = 4; N1: only one participant measurable), geometric mean (% geometric CV)
[9] = 60 mg daily (n = 4; N1: only one participant measurable), median (min-max)

Row | Structure (SMILES) | AUC0 − 24 in plasma, dose proportionality [1] | mean levels averaged over 24 h of CSF sampling ([1]; 60 mg BID (n = 5)) [ng/mL] | AUC0 − 24 [1, 4] | Cmax [1, 4] | Tmax [1, 5] | AUC0 − 24 ([1]; 60 mg TID (n = 1)) [ng·h/mL] | Cmax ([1]; 60 mg TID (n = 1)) [ng/mL] | Tmax ([1]; 60 mg TID (n = 1)) [h] | mean levels averaged over 24 h of CSF sampling ([1]; 60 mg TID (n = 1)) [ng/mL] | AUC0 − 24 [1, 6] | Cmax [1, 6] | Tmax [1, 7] | mean levels averaged over 24 h of CSF sampling ([1]; 60 mg once daily (n = 5)) [ng/mL] | mean levels averaged over 24 h of CSF sampling ([2]; 60 mg (n = 5)) [ng/mL] | mean levels averaged over 24 h of CSF sampling ([2]; 60 mg BID (n = 5)) [ng/mL] | AUC0 − 24 [2, 4] | Cmax [2, 4] | Tmax [2, 5] | mean levels averaged over 24 h of CSF sampling ([2]; 60 mg TID (n = 1)) [ng/mL] | AUC0 − 24 [2, 8] | other results
1 | CN1CC[C@]2(C)c3cc(OC(=O)Nc4ccccc4)ccc3NC12 (stereo partly drawn) [N8] | increased approximately proportionally | 5.04 ± 1.80 | 113.65 (44.01) hr*ng/mL | 10.01 (27.79) ng/mL | 12 (2–20) hr | 80.40 | 5.41 | 2 | 3.35 | 66.02 (20.83) hr*ng/mL | 6.81 (25.10) ng/mL | 3 (3–4) hr | 2.25 ± 1.36 | 0.35 ± 0.26 | 0.77 ± 0.43 | 17.88 (58.47) hr*ng/mL | 1.41 (39.33) ng/mL | 12 (4–20) hr | 0.15 | 8.91 (47.91) hr*ng/mL | AUC0 − 24 ([2]; 60 mg TID (n = 1)): 6.26 ng·h/mL; Cmax ([2]; 60 mg TID (n = 1)): 0.62 ng/mL; Tmax ([2]; 60 mg TID (n = 1)): 12 h; Cmax [2, 8]: 1.01 (14.14) ng/mL; Tmax [2, 9]: 4 (2–8) hr
2 | CN1c2ccc(OC(=O)Nc3ccccc3)cc2[C@]2(C)CCN[C@H]12 [N1] | increased approximately proportionally | 3.02 ± 1.40 | 65.06 (58.61) hr*ng/mL | 6.96 (32.01) ng/mL | 12 (2–20) hr | 60.18 | 5.48 | 2 | 2.51 | 36.60 (19.24) hr*ng/mL | 5.43 (21.98) ng/mL | 2 (2–4) hr | 1.29 ± 0.77 | 0.02 ± 0.04 | 0.28 ± 0.30 | 8.75 (83.50) hr*ng/mL | 0.90 (31.32) ng/mL | 12 (4–20) hr | 0.00 | 1.33* hr*ng/mL | Cmax [2, 8]: 0.66* ng/mL; Tmax [2, 9]: 4* hr
3 | CN(C)CCCC1(c2ccc(F)cc2)OCc2cc(C#N)ccc21 (stereo not drawn) [citalopram] | – | – | – | – | – | – | – | – | – | – | – | – | – | – | – | – | – | – | – | – | Aβ production (SILK) [3]: decreased
